What all share (experiment): Antibacterial screening, agar disc-diffusion method
Common to all, as to format: cell-based
A general note: Agar diffusion results depend on both activity and mobility in agar.

Experiment [1] concerns Bacillus Cereus. The settings on record: Gram positive, 6 mm disc, 10 μL of 10 mg/mL in DMSO, DMSO zone subtracted. The method, then:
(§1) The antibacterial properties of the synthesized compound 2-amino-4-(4-bromophenyl)-6-methoxypyridine-3,5-dicarbonitrile were studied by the method of agar disc-diffusion method. Sterilized filter papers (6 mm in diameter) were wetted with 10 μL of a solution of 2-amino-4-(4-bromophenyl)-6-methoxypyridine-3,5-dicarbonitrile (3) to be tested, containing 10 mg/mL in DMSO, and the discs were allowed to air dry. The discs were then placed onto the surface of agar plates (nutrient agar for bacteria) seeded with the test organism. Each plate contained 15 mL of the agar medium, previously seeded with 0.2 mL of the broth culture of each organism pregrown for 18 hours. The inhibition zones was measured in mm. Discs impregnated with DMSO were used as a control, and its inhibition zone was subtracted from the tested compound actual inhibition zone. […] Their antibacterial screened against gram positive bacteria namely Bacillus cereus and Staphylococcus aureus and gram-negative bacterial strains namely Pseudomonas aeruginosa and Escherichia coli.

The subject of experiment [2] is Escherichia coli. The settings on record: Gram negative, 6 mm disc, 10 μL of 10 mg/mL in DMSO, DMSO zone subtracted. The method, then:
as §1

For experiment [3], the system named is Pseudomonas aeruginosa. The settings on record: Gram negative, 6 mm disc, 10 μL of 10 mg/mL in DMSO, DMSO zone subtracted. As to the method:
as §1

In experiment [4] the test system is Staphylococcus aureus. Particulars: Gram positive, 6 mm disc, 10 μL of 10 mg/mL in DMSO, DMSO zone subtracted. As to the method:
as §1

SMILES strings stand for the structures. Read-outs that look alike come from different tables or passages of the source.

As to `COc1nc(N)c(C#N)c(-c2ccc(Br)cc2)c1C#N` [Compound 3, 2-amino-4-(4-bromophenyl)-6-methoxypyridine-3,5-dicarbonitrile], the zone of inhibition at 10000 µg/mL in experiment [1] (sub-column A (not defined), read-out: inhibition zone, Bacillus Cereus, A) stood at 32 mm; in experiment [1] (sub-column B (not defined), read-out: inhibition zone, Bacillus Cereus, B), 37 mm; in experiment [1] (sub-column C (not defined), read-out: inhibition zone, Bacillus Cereus, C), 40 mm; in experiment [2] (sub-column A (not defined), read-out: inhibition zone, Escherichia coli, A), 39 mm; in experiment [2] (sub-column B (not defined), read-out: inhibition zone, Escherichia coli, B), 41 mm; in experiment [2] (sub-column C (not defined), read-out: inhibition zone, Escherichia coli, C) it was 46 mm. Further, the zone of inhibition at 10000 µg/mL in experiment [3] (sub-column A (not defined), read-out: inhibition zone, Pseudomonas aeruginosa, A) turned out to be 24 mm; in experiment [3] (sub-column B (not defined), read-out: inhibition zone, Pseudomonas aeruginosa, B), 34 mm; in experiment [3] (sub-column C (not defined), read-out: inhibition zone, Pseudomonas aeruginosa, C), 39 mm; in experiment [4] (sub-column A (not defined), read-out: inhibition zone, Staphylococcus aureus, A), 18 mm; in experiment [4] (sub-column B (not defined), read-out: inhibition zone, Staphylococcus aureus, B) it was 27 mm; in experiment [4] (sub-column C (not defined), read-out: inhibition zone, Staphylococcus aureus, C) it was 33 mm.

Source of the values: patent publication US12180162B1, “2-amino-4-(4-bromophenyl)-6-methoxypyridine-3,5-dicarbonitrile as an antibacterial compound” (KING FAISAL UNIVERSITY, priority 2023, dated 2024).
